Source: US7014839B2, “Light imaging contrast agents” (Amersham Health AS, priority 1995, dated 2006)
Marks after values point to notes of the source that are not given here.

Experiments:
[1] = Average particle size of milled nanoparticle suspensions (light scattering); conditions: for average particle size: light scattering
Protocol: WIN 70146 (an iodinated X-ray contrast agent prepared according to Example 23 below) was added to each of 3×1.5 oz brown glass bottles containing approximately 12 ml of zirconium silicate, 1.1 mm diameter beads in an amount sufficient to be 15% (wt/vol %) of the final suspension. Bottle A was also made 3% (wt/vol %) Pluronic F-68 while bottle B was made 3% (wt/vol %)) Pluronic F-108 and bottle C was made 3% (wt/vol %) Tetronic T-908. The resulting suspensions were milled at approx 150 rpm for a total of 9 days with estimates of particle size determined at various intervals as detailed below.
WIN 70146 was milled with 1.1 mm diameter zirconium silicate beads for 3 days under aseptic conditions. The concentration of this agent was 15% WIN 70146 in the presence of 4% Pluronic F-108. No additional salts or surfactants were added.
WIN 70146 was milled with 1.1 mm diameter zirconium silicate beads in the presence of Pluronic F-108 for 3 days. […] At this point, sterile PEG 400 was added to the suspension such that at completion, the formulation contained 15% (wt/vol %) WIN 70146, 3% (wt/vol %) Pluronic F-108 and 10% PEG 400.
(§1) This suspension was then diluted in water to various levels listed below. The percent of incident light transmitted was then determined for each suspension at several wavelengths (see below). The suspensions were then dissolved by addition of methanol and examined for percent transmitted light against an equivalent solvent blank.
A formulation of WIN 70177 (an iodinated X-ray contrast agent prepared according to Example 24) was prepared as 15 gm of WIN 70177/100 ml of suspension and 4.25-gm of Pluronic F108/100 ml of suspension and 10 gm of PEG 400/100 ml of suspension.
A formulation of WIN 67722 (an iodinated X-ray contrast agent as described in U.S. Pat. No. 5,322,679) was prepared as in Example 1 using 3% Pluronic F108 and 15% PEG 1450.
as §1

[2] = Percent of incident light transmitted by diluted nanoparticle suspension and by methanol-dissolved agent; format: physicochemical; conditions: for % T suspension 632 nm / % T suspension 700 nm / % T suspension 820 nm / % T suspension 800 nm: nanoparticle suspension
Description: The results are given below.

[3] = Absorbance vs wavelength of dissolved and nanoparticle agent; format: physicochemical; conditions: above 600 nm; for Absorbance vs wavelength of dissolved agent: dissolved (methanol); for Absorbance vs wavelength of nanoparticle agent: particulate suspension
mice = system: mice
Protocol: WIN 70146 was prepared as in Example 10 and injected into the tail vein of mice at doses of 3 ml/kg, 15 ml/kg, and 30 ml/kg (ie. 0.45 gm/kg, 2.25 gm/kg and 4.5 gm/kg).

[4] = Stability testing in fresh rat plasma; format: physicochemical; conditions: nanoparticle suspension, F108/PEG 400
Protocol: (§2) A formulation of WIN 70177 (an iodinated X-ray contrast agent prepared according to Example 24) was prepared as 15 gm of WIN 70177/100 ml of suspension and 4.25-gm of Pluronic F108/100 ml of suspension and 10 gm of PEG 400/100 ml of suspension. The suspension was milled for 5 days after which the average particle size was determined by light scattering to be about 235 nm.

[5] = Stability testing in simulated gastric fluid; format: physicochemical; conditions: nanoparticle suspension, F108/PEG 400
Protocol: as §2

[6] = 3% Pluronic F108, 15% PEG 1450, milled 3 days, Coulter N4MD
[7] = methanol added, 0.150%, not fully dissolved
[8] = methanol added, 0.300%, not fully dissolved

SMILES | % T solution 632 nm ([2]; dissolved by methanol, 0.015%) | % T solution 700 nm ([2]; dissolved by methanol, 0.015%) | % T solution 632 nm ([2]; dissolved by methanol, 0.0375%) | % T solution 700 nm ([2]; dissolved by methanol, 0.0375%) | % T solution 632 nm ([2]; dissolved by methanol, 0.075%) | % T solution 700 nm ([2]; dissolved by methanol, 0.075%) | % T solution 632 nm [2, 7] | % T solution 700 nm [2, 7] | % T solution 632 nm [2, 8] | % T solution 700 nm [2, 8] | % T suspension 632 nm ([2]; 0.015%) | % T suspension 700 nm ([2]; 0.015%) | % T suspension 632 nm ([2]; 0.0375%) | % T suspension 700 nm ([2]; 0.0375%) | % T suspension 632 nm ([2]; 0.075%) | % T suspension 700 nm ([2]; 0.075%) | % T suspension 632 nm ([2]; 0.150%) | % T suspension 700 nm ([2]; 0.150%) | % T suspension 632 nm ([2]; 0.300%) | % T suspension 700 nm ([2]; 0.300%) | other results
CCOC(=O)CCCCCOC(=O)c1c(I)c(NC(C)=O)c(I)c(NC(C)=O)c1I [WIN 67722] | 99.9% | 99.9% | 100.2% | 100.2% | 100.1% | 100.2% | 48.2* % | 55.3* % | 1.3* % | 3.5* % | 47.9% | 57.1% | 20.5% | 29.9% | 4.8% | 9.9% | 0.2% | 1.0% | 0.0% | 0.0% | average diameter after autoclaving ([1]; 3% Pluronic F108, 15% PEG 1450): 214 nm; particle size [1, 6]: 213 nm; particle size, small fraction [1, 6]: 537 nm; % T solution 820 nm ([2]; dissolved by methanol, 0.015%): 100.6%; % T solution 820 nm ([2]; dissolved by methanol, 0.0375%): 100.4%; % T solution 820 nm ([2]; dissolved by methanol, 0.075%): 100.4%; % T solution 820 nm [2, 7]: 65.5* %; % T solution 820 nm [2, 8]: 10.7* %; % T suspension 820 nm ([2]; 0.015%): 69.2%; % T suspension 820 nm ([2]; 0.0375%): 45.6%; % T suspension 820 nm ([2]; 0.075%): 22.1%; % T suspension 820 nm ([2]; 0.150%): 4.9%; % T suspension 820 nm ([2]; 0.300%): 0.2%; Absorbance vs wavelength of dissolved agent [3]: has virtually no absorbance at all even at 5 times the concentration; Absorbance vs wavelength of nanoparticle agent [3]: provides an exponential drop in absorbance with wavelength
CCCCC(OC(=O)c1c(I)c(NC(C)=O)c(I)c(NC(C)=O)c1I)C(=O)OCC (centres unmarked) [WIN 70146, Benzoic Acid, 3,5-bis(acetylamino)-2,4,6-triiodo-1-(ethoxycarbonyl)pentyl ester] | 100.4% | 100.3% | 99.9% | 99.9% | 99.9% | 99.8% | 41.4* % | 51.9* % | 1.2* % | 4.0* % | 54.7% | 64.5% | 25.4% | 36.6% | 7.7% | 15.4% | 0.5% | 1.9% | 0.0% | 0.1% | average diameter after autoclaving ([1]; 4.25% F108/10% PEG 400): 228 nm; average particle size ([1]; 15% WIN 70146, 4% Pluronic F-108, milled 3 days): 162 nm; final particle size after autoclaving ([1]; 15% agent, 3% Pluronic F-108, 10% PEG 400, 121 degrees C. for 20 min): 248 nm; final particle size after milling ([1]; Pluronic F-108, milled 3 days, before PEG 400 and autoclaving): 235 nm; Stability to heat and shelf time of nanoparticle suspension ([1]; in F108 and T908, autoclaving, time on the shelf): excellent stability to heat (autoclaving) and time on the shelf; Untoward effects (mice; tail vein, 3, 15 and 30 ml/kg (0.45, 2.25, 4.5 gm/kg), 7 days): No untoward effects were noted; Gross observation after sacrifice (mice; tail vein, 3-30 ml/kg, after 7 days): did not reveal any obvious lesions or disfigurations; % T solution 820 nm ([2]; dissolved by methanol, 0.015%): 100.5%; % T solution 820 nm ([2]; dissolved by methanol, 0.0375%): 99.9%; % T solution 820 nm ([2]; dissolved by methanol, 0.075%): 99.9%; % T solution 820 nm [2, 7]: 66.2* %; % T solution 820 nm [2, 8]: 13.5* %; % T suspension 820 nm ([2]; 0.015%): 77.0%; % T suspension 820 nm ([2]; 0.0375%): 53.8%; % T suspension 820 nm ([2]; 0.075%): 31.8%; % T suspension 820 nm ([2]; 0.150%): 8.6%; % T suspension 820 nm ([2]; 0.300%): 0.8%; Absorbance vs wavelength of dissolved agent [3]: does not show any evidence of light absorbance from 600 to 800 nm; Absorbance vs wavelength of nanoparticle agent [3]: shows a classic absorbance decay due to scattering of the incident light
CC(=O)Nc1c(I)c(NC(C)=O)c(I)c(C(=O)OCC(C(=O)OC(C)C)C(=O)OC(C)C)c1I [WIN 70177, Propanedioic Acid, [[3,5-bis(acetylamino)-2,4,6-triiodobenzoyl]oxy]methyl-bis(1-methylethyl)ester] | 102.2% | 101.9% | 102.3% | 101.9% | 100.9% | 100.8% | 59.5* % | 67.8* % | 7.4* % | 14.4* % | 53.3% | 62.8% | 34.6% | 45.7% | 25.8% | 36.8% | 6.7% | 13.6% | 0.1% | 0.6% | average diameter after autoclaving ([1]; 4.25% F108/10% PEG 400): 236 nm; average particle size ([1]; 15 gm agent, 4.25 gm Pluronic F108, 10 gm PEG 400 per 100 ml, milled 5 days): about 235 nm; % T solution 800 nm ([2]; dissolved by methanol, 0.015%): 101.8%; % T solution 800 nm ([2]; dissolved by methanol, 0.0375%): 101.8%; % T solution 800 nm ([2]; dissolved by methanol, 0.075%): 101.0%; % T solution 800 nm [2, 7]: 77.0* %; % T solution 800 nm [2, 8]: 26.8* %; % T suspension 800 nm ([2]; 0.015%): 73.1%; % T suspension 800 nm ([2]; 0.0375%): 59.1%; % T suspension 800 nm ([2]; 0.075%): 51.1%; % T suspension 800 nm ([2]; 0.150%): 26.3%; % T suspension 800 nm ([2]; 0.300%): 3.2%; Aggregation in fresh rat plasma [4]: did not show any aggregation; Aggregation in simulated gastric fluid [5]: did not show any aggregation; Absorbance vs wavelength of dissolved agent [3]: has virtually no absorbance at all even at 5 times the concentration; Absorbance vs wavelength of nanoparticle agent [3]: provides an exponential drop in absorbance with wavelength
